Measured values taken from patent US11254686B1 (Corvus Pharmaceuticals, Inc., priority 2017, dated 2022).
pIC50: −log10 of the molar value.

Columns and labels:
CYP2D6 = CYP2D6 (Homo sapiens (Human), UniProt P10635); assay: CYP450 inhibition at 10 μM, CYP2D6; type: in vitro ADME; conditions: read-out: CYP 450 % INH @ 10 μM
adenosine A3 receptor = adenosine A3 receptor (Homo sapiens (Human), UniProt P0DMS8); assay: A3 cAMP IC50 assay (Table 1); type: biochemical
CYP3A4 = CYP3A4 (Homo sapiens (Human), UniProt P08684); assay: CYP450 inhibition at 10 μM, CYP3A4; type: in vitro ADME; conditions: for inhibition at 10 µM: human, read-out: CYP 450 % INH @ 10 μM
CYP3A4, sequence (P08684 whole entry): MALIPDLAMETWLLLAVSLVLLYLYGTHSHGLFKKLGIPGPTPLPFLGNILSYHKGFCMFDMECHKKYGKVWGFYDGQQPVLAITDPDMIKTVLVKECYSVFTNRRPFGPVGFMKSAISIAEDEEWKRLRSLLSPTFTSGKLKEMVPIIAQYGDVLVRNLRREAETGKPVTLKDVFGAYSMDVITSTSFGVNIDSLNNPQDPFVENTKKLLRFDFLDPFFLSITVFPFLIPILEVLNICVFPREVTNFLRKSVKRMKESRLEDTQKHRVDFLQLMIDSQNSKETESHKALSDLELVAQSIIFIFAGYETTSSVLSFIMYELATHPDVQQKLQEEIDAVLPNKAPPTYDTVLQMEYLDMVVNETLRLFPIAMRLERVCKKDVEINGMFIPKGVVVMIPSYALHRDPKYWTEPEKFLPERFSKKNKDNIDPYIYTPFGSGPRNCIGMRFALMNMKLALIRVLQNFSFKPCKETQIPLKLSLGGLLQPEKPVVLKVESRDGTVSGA

[1] = Liver microsome (LM) intrinsic clearance, rat; type: in vitro ADME
adenosine A2B receptor = adenosine A2B receptor (Homo sapiens (Human), UniProt P29275); assay: Adenosine receptor activity assay (Table 1), A2B activity; type: biochemical; conditions: for Ratio: A2A activity to A2B activity (A2A/A2B); for pIC50: read-out: Ave A2B cAMP IC50
adenosine A2B receptor, sequence (P29275 whole entry): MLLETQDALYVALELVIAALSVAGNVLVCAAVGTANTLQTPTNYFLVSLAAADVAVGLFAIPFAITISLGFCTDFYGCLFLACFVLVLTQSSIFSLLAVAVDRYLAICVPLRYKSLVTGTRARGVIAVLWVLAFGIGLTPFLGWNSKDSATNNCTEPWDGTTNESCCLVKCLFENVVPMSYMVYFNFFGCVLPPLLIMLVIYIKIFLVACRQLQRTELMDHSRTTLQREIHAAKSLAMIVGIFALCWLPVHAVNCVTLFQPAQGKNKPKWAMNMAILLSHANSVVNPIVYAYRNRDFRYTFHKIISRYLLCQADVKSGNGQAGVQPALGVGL

[2] = Liver microsome (LM) intrinsic clearance, human; type: in vitro ADME
[3] = Hepatocyte (Hep) intrinsic clearance, rat; type: in vitro ADME; conditions: hepatocytes
adenosine A1 receptor = adenosine A1 receptor (Homo sapiens (Human), UniProt P30542); assay: A1 cAMP IC50 assay (Table 1); type: biochemical
adenosine A1 receptor, sequence (P30542 whole entry): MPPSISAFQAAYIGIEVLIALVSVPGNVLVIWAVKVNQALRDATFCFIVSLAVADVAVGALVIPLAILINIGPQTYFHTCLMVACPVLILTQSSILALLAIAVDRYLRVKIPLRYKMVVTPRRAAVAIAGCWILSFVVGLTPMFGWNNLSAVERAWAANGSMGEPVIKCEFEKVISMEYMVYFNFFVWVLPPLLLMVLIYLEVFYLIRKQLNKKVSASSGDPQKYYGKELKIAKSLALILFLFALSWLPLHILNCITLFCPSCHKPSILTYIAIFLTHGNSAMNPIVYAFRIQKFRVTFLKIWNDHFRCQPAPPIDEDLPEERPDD

adenosine A2A receptor = adenosine A2A receptor (Homo sapiens (Human), UniProt P29274); assay: Adenosine receptor activity assay (Table 1), A2A activity; type: biochemical; conditions: read-out: Ave A2A cAMP IC50
adenosine A2A receptor, sequence (P29274 whole entry): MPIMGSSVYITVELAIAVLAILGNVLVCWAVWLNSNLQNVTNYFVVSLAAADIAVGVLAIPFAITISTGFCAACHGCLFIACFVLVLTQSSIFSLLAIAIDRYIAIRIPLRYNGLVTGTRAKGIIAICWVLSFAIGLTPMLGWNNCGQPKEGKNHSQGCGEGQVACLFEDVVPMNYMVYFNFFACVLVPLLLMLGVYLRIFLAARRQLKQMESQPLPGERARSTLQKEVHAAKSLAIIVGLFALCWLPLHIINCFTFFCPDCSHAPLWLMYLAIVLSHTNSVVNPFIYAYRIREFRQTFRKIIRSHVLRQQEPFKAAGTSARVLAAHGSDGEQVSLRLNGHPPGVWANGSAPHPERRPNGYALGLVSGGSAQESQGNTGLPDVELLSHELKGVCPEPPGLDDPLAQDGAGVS

[4] = Hepatocyte (Hep) intrinsic clearance, human; type: in vitro ADME; conditions: hepatocytes

adenosine A3 receptor, sequence (P0DMS8 whole entry): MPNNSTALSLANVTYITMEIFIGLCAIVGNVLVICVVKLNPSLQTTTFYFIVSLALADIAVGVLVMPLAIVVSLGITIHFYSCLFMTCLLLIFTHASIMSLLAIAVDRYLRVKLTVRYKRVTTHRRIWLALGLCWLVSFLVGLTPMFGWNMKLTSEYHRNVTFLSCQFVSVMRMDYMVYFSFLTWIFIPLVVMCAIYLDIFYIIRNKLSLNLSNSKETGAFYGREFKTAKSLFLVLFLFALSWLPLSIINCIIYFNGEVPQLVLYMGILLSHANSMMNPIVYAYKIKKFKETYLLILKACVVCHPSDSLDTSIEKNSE
CYP2D6, sequence (P10635 whole entry): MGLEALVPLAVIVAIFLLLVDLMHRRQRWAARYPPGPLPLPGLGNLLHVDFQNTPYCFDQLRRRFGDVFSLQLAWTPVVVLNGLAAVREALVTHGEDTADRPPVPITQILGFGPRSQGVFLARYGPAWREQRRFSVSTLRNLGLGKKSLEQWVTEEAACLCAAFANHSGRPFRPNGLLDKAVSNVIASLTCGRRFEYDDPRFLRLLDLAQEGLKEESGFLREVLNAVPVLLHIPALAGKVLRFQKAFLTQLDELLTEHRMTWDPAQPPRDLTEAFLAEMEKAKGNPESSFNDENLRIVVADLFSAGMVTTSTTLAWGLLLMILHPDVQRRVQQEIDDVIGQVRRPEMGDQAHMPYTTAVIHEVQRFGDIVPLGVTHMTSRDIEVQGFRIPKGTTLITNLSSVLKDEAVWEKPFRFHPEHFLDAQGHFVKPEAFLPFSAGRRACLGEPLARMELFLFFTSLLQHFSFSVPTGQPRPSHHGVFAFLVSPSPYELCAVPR

Row | Structure (SMILES) | inhibition at 10 µM (CYP2D6) | pIC50 (adenosine A3 receptor) | inhibition at 10 µM (CYP3A4) | LM CLint [1] | Ratio (adenosine A2B receptor) | pIC50 (adenosine A2B receptor) | LM CLint [2] | hepatocyte CLint [3] | pIC50 (adenosine A1 receptor) | pIC50 (adenosine A2A receptor) | hepatocyte CLint [4] | CYP3A4 IC50 (CYP3A4)
1 | CO[C@@H]1CCN(C(=O)c2nc(N[C@@H](C)c3cccnc3)nc3ccsc23)C1 [Example Z19, ((R)-3-Methoxypyrrolidin-1-yl)(2-(((S)-1-(pyridin-3-yl)ethyl)amino)thieno[3,2-d]pyrimidin-4-yl)methanone] | 51% | 7.00 to 7.30 | 42% | 63.06 μL/min/mg/protein | 1.37 | 7.30 to 8.00 | 17.60 μL/min/mg/protein | 83.4 µL/min/1e6 cells | < 6.30 | 7.30 to 8.00 | 12.9 µL/min/1e6 cells | –
2 | O=C(c1nc(NCc2cncc(F)c2)nc2ccsc12)N1CCC1 [Example Z61, Azetidin-1-yl(2-(((5-fluoropyridin-3-yl)methyl)amino)thieno[3,2-d]pyrimidin-4-yl)methanone] | 10% | < 6.30 | 38% | 44.58 μL/min/mg/protein | 84.42 | > 8.00 | 33.16 μL/min/mg/protein | 44.9 µL/min/1e6 cells | < 6.30 | 6.30 to 7.00 | 15.4 µL/min/1e6 cells | –
3 | C[C@H](Nc1nc(C(=O)N2CC[C@H](F)C2)c2sccc2n1)c1ccccn1 [Example Z53, ((S)-3-Fluoropyrrolidin-1-yl)(2-(((S)-1-(pyridin-2-yl)ethyl)amino)thieno[3,2-d]pyrimidin-4-yl)methanone] | 0% | – | 10% | 14.92 μL/min/mg/protein | 7.15 | > 8.00 | 13.51 μL/min/mg/protein | 42.7 µL/min/1e6 cells | – | 7.00 to 7.30 | 10.9 µL/min/1e6 cells | –
4 | O=C(c1nc(NCc2cncc(F)c2)nc2ccsc12)N1CC[C@@H](O)C1 [Example Z66, (R)-(2-(((5-Fluoropyridin-3-yl)methyl)amino)thieno[3,2-d]pyrimidin-4-yl)(3-hydroxypyrrolidin-1-yl)methanone] | 4% | – | 24% | 14.07 μL/min/mg/protein | 15.71 | 7.30 to 8.00 | 16.45 μL/min/mg/protein | 21.2 µL/min/1e6 cells | – | 6.30 to 7.00 | 7.1 µL/min/1e6 cells | –
5 | C[C@H](Nc1nc(C(=O)N2CC(F)(F)C2)c2sccc2n1)c1cccnc1 [Example Z32, (S)-(3,3-Difluoroazetidin-1-yl)(2-((1-(pyridin-3-yl)ethyl)amino)thieno[3,2-d]pyrimidin-4-yl)methanone] | 7% | < 6.30 | 49% | 33.25 μL/min/mg/protein | 6.64 | 7.30 to 8.00 | 51.28 μL/min/mg/protein | 76.2 µL/min/1e6 cells | < 6.30 | 6.30 to 7.00 | 63.2 µL/min/1e6 cells | –
6 | COc1ccc(CNC(=O)c2nc(N[C@@H](C)c3ccccn3)nc3ccsc23)cn1 [Example Z16, (S)—N-((6-Methoxypyridin-3-yl)methyl)-2-((1-(pyridin-2-yl)ethyl)amino)thieno[3,2-d]pyrimidine-4-carboxamide] | 13% | < 6.30 | 46% | 32.42 μL/min/mg/protein | 1.67 | 7.30 to 8.00 | 17.68 μL/min/mg/protein | 58.6 µL/min/1e6 cells | < 6.30 | 7.00 to 7.30 | 14.5 µL/min/1e6 cells | –
7 | Cc1cncc(CNc2nc(C(=O)N3CCC3)c3sccc3n2)c1 [Example Z55, Azetidin-1-yl(2-(((5-methylpyridin-3-yl)methyl)amino)thieno[3,2-d]pyrimidin-4-yl)methanone] | 19% | < 6.30 | 76% | 94.74 μL/min/mg/protein | 127.22 | 7.30 to 8.00 | 63.74 μL/min/mg/protein | 64.7 µL/min/1e6 cells | < 6.30 | < 6.30 | 25.6 µL/min/1e6 cells | –
8 | C[C@H](Nc1nc(C(=O)N2CC[C@H](F)C2)c2sccc2n1)c1cccnc1 [Example Z9, ((S)-3-Fluoropyrrolidin-1-yl)(2-(((S)-1-(pyridin-3-yl)ethyl)amino)thieno[3,2-d]pyrimidin-4-yl)methanone] | 20% | – | 71% | 28.41 μL/min/mg/protein | 2.55 | 7.30 to 8.00 | 15.83 μL/min/mg/protein | 70.1 µL/min/1e6 cells | – | 7.00 to 7.30 | 11.4 µL/min/1e6 cells | –
9 | Cc1cncc(CNc2nc(C(=O)N3CCCC3)c3sccc3n2)c1 [Example Z50, (2-(((5-Methylpyridin-3-yl)methyl)amino)thieno[3,2-d]pyrimidin-4-yl)(pyrrolidin-1-yl)methanone] | 32% | – | 79% | 129.90 μL/min/mg/protein | 5.23 | 7.30 to 8.00 | 126.01 μL/min/mg/protein | 149 µL/min/1e6 cells | – | < 6.30 | 49 µL/min/1e6 cells | –
10 | O=C(c1nc(NCc2cncc(F)c2)nc2ccsc12)N1CCCC1 [Example Z21, (2-(((5-Fluoropyridin-3-yl)methyl)amino)thieno[3,2-d]pyrimidin-4-yl)(pyrrolidin-1-yl)methanone] | 4% | – | 45% | 89.01 μL/min/mg/protein | – | – | 43.24 μL/min/mg/protein | 71.2 µL/min/1e6 cells | – | 6.30 to 7.00 | 23.1 µL/min/1e6 cells | 12400 nM
11 | CCNC(=O)c1nc(N[C@@H](C)c2ccccn2)nc2ccsc12 [Example Z111, (S)—N-Ethyl-2-((1-(pyridin-2-yl)ethyl)amino)thieno[3,2-d]pyrimidine-4-carboxamide] | – | < 6.30 | 19.9% | – | 15.70 | > 8.00 | – | 45.4 µL/min/1e6 cells | < 6.30 | 7.00 to 7.30 | 8.64 µL/min/1e6 cells | –
12 | C[C@H](Nc1nc(C(=O)N2CCCC2)c2sccc2n1)c1cccc(F)c1 [Example Z125, (S)-(2-((1-(3-Fluorophenyl)ethyl)amino)thieno[3,2-d]pyrimidin-4-yl)(pyrrolidin-1-yl)methanone] | – | < 6.30 | -50.9% | – | 15.42 | > 8.00 | – | 144 µL/min/1e6 cells | < 6.30 | 6.30 to 7.00 | 42.8 µL/min/1e6 cells | –
13 | O=C(c1nc(NCc2cncc(F)c2)nc2ccsc12)N1CC(F)(F)C1 [Example Z97, (3,3-Difluoroazetidin-1-yl)(2-(((5-fluoropyridin-3-yl)methyl)amino)thieno[3,2-d]pyrimidin-4-yl)methanone] | – | < 6.30 | 53.8% | – | 30.97 | 7.30 to 8.00 | – | 61.4 µL/min/1e6 cells | < 6.30 | < 6.30 | 41.3 µL/min/1e6 cells | –
14 | C[C@H](Nc1nc(C(=O)N2CCOC2)c2sccc2n1)c1ccccn1 [Example Z105, (S)-Oxazolidin-3-yl(2-((1-(pyridin-2-yl)ethyl)amino)thieno[3,2-d]pyrimidin-4-yl)methanone] | – | < 6.30 | 1.91% | – | 19.04 | > 8.00 | – | 27.7 µL/min/1e6 cells | < 6.30 | 6.30 to 7.00 | 58.9 µL/min/1e6 cells | –
15 | C[C@@H]1CCN(C(=O)c2nc(N[C@@H](C)c3ccccn3)nc3ccsc23)C1 [Example Z86, ((R)-3-Methylpyrrolidin-1-yl)(2-(((S)-1-(pyridin-2-yl)ethyl)amino)thieno[3,2-d]pyrimidin-4-yl)methanone] | – | < 6.30 | 19% | – | 4.25 | 7.30 to 8.00 | – | 55.1 µL/min/1e6 cells | < 6.30 | 7.00 to 7.30 | 11.8 µL/min/1e6 cells | –
16 | O=C(NCCO)c1nc(NCc2cncc(F)c2)nc2ccsc12 [Example Z123, 2-(((5-Fluoropyridin-3-yl)methyl)amino)-N-(2-hydroxyethyl)thieno[3,2-d]pyrimidine-4-carboxamide] | – | < 6.30 | 76.5% | – | 42.97 | 7.30 to 8.00 | – | 22 µL/min/1e6 cells | < 6.30 | < 6.30 | 5.54 µL/min/1e6 cells | –
17 | C[C@H](Nc1nc(C(=O)N2CCCC2)c2sccc2n1)c1cncc(F)c1 [Example Z134, (S)-(2-((1-(5-Fluoropyridin-3-yl)ethyl)amino)thieno[3,2-d]pyrimidin-4-yl)(pyrrolidin-1-yl)methanone] | – | < 6.30 | 62.7% | – | 72.09 | > 8.00 | – | 72.9 µL/min/1e6 cells | < 6.30 | 6.30 to 7.00 | 17.9 µL/min/1e6 cells | –
